PMC10726358 (Journal of Medicinal Chemistry, 2023)
Where two headings read alike, the source gives them in different places.

How the values were obtained:
SERT = biological target: T1, SERT (Homo sapiens, UniProt P31645); experiment: Cross screening: SERT blocker; assay type: biochemical
T1 construct: purchased GSK enhanced cross-screening panel (in-house)

PCAF = biological target: T2, PCAF (Homo sapiens, UniProt Q92831); experiment: BROMOscan PCAF; assay type: binding
T2 construct: ≥2000-fold selectivity over all 20 non-BET bromodomains tested; purchased DiscoverX
T2 sequence (Q92831 723-827 limits assumed): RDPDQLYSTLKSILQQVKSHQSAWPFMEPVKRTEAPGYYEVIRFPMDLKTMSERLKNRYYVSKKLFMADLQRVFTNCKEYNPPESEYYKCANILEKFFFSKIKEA
Method: (§1) The BRD4 BD1/BD2 TR-FRET assay had been used routinely for this optimization work, and in order to better understand the BET BD1 domain selectivity profile, 31 was tested in TR-FRET BRD2, BRD3, and BRDT assays.
(§2) [52] BROMOscan recombinant protein binding assays were carried out at DiscoverX. (accessed April 4, 2023).

BAZ2B = biological target: T3, BAZ2B (Homo sapiens, UniProt Q9UIF8); experiment: BROMOscan BAZ2B; assay type: binding
T3 construct: ≥2000-fold selectivity over all 20 non-BET bromodomains tested; purchased DiscoverX
T3 sequence (Q9UIF8 2060-2164 limits assumed): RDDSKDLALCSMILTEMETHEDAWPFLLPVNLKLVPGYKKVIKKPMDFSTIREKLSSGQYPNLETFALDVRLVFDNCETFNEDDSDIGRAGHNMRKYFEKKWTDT
Method: as §1, §2

LCK = biological target: T4, LCK (Homo sapiens, UniProt P06239); experiment: Cross screening: LCK inhibitor; assay type: biochemical
T4 construct: purchased GSK enhanced cross-screening panel (in-house)
T4 sequence (P06239 whole entry): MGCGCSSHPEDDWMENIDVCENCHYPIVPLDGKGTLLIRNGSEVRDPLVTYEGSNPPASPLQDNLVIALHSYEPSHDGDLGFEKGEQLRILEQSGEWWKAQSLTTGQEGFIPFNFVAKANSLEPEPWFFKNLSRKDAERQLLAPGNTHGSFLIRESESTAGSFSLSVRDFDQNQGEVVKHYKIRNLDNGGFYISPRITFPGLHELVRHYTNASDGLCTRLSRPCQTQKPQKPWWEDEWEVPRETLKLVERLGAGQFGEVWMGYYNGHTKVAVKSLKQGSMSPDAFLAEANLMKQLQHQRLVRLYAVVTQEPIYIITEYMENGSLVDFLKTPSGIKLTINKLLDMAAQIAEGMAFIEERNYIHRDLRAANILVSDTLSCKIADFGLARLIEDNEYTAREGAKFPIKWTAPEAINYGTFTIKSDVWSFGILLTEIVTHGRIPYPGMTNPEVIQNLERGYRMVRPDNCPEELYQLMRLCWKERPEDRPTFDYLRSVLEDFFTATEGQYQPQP

Aurora B = biological target: T5, Aurora B (Homo sapiens, UniProt Q96GD4); experiment: Cross screening: Aurora B inhibitor; assay type: biochemical
T5 construct: purchased GSK enhanced cross-screening panel (in-house)
T5 sequence (Q96GD4 whole entry): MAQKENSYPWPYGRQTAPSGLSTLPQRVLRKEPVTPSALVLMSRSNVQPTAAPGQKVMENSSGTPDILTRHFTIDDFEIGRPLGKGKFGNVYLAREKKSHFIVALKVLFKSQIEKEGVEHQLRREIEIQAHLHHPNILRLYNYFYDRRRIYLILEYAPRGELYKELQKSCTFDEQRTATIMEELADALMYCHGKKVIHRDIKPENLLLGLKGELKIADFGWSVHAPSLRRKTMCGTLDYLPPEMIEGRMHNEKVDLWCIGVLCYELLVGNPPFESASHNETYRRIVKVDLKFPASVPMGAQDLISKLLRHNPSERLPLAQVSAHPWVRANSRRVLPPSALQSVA

BAZ2A = biological target: T6, BAZ2A (Homo sapiens, UniProt Q9UIF9); experiment: BROMOscan BAZ2A; assay type: binding
T6 construct: ≥2000-fold selectivity over all 20 non-BET bromodomains tested; purchased DiscoverX
T6 sequence (Q9UIF9 1793-1897 limits assumed): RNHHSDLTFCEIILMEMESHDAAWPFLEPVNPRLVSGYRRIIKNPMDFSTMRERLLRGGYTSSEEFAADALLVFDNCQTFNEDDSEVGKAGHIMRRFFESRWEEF
Method: as §1, §2

Histamine 1 = biological target: T7, Histamine 1 (Homo sapiens, UniProt P35367); experiment: Cross screening: Histamine 1 antagonist; assay type: biochemical
T7 construct: purchased GSK enhanced cross-screening panel (in-house)

CYP3A4 = CYP3A4 (Homo sapiens, UniProt P08684); experiment: Cross screening: CYP3A4 inhibition
Nav1.5 = Nav1.5 (Homo sapiens, UniProt Q14524); experiment: Cross screening: Nav1.5 blocker
Nav1.5, sequence (Q14524 whole entry): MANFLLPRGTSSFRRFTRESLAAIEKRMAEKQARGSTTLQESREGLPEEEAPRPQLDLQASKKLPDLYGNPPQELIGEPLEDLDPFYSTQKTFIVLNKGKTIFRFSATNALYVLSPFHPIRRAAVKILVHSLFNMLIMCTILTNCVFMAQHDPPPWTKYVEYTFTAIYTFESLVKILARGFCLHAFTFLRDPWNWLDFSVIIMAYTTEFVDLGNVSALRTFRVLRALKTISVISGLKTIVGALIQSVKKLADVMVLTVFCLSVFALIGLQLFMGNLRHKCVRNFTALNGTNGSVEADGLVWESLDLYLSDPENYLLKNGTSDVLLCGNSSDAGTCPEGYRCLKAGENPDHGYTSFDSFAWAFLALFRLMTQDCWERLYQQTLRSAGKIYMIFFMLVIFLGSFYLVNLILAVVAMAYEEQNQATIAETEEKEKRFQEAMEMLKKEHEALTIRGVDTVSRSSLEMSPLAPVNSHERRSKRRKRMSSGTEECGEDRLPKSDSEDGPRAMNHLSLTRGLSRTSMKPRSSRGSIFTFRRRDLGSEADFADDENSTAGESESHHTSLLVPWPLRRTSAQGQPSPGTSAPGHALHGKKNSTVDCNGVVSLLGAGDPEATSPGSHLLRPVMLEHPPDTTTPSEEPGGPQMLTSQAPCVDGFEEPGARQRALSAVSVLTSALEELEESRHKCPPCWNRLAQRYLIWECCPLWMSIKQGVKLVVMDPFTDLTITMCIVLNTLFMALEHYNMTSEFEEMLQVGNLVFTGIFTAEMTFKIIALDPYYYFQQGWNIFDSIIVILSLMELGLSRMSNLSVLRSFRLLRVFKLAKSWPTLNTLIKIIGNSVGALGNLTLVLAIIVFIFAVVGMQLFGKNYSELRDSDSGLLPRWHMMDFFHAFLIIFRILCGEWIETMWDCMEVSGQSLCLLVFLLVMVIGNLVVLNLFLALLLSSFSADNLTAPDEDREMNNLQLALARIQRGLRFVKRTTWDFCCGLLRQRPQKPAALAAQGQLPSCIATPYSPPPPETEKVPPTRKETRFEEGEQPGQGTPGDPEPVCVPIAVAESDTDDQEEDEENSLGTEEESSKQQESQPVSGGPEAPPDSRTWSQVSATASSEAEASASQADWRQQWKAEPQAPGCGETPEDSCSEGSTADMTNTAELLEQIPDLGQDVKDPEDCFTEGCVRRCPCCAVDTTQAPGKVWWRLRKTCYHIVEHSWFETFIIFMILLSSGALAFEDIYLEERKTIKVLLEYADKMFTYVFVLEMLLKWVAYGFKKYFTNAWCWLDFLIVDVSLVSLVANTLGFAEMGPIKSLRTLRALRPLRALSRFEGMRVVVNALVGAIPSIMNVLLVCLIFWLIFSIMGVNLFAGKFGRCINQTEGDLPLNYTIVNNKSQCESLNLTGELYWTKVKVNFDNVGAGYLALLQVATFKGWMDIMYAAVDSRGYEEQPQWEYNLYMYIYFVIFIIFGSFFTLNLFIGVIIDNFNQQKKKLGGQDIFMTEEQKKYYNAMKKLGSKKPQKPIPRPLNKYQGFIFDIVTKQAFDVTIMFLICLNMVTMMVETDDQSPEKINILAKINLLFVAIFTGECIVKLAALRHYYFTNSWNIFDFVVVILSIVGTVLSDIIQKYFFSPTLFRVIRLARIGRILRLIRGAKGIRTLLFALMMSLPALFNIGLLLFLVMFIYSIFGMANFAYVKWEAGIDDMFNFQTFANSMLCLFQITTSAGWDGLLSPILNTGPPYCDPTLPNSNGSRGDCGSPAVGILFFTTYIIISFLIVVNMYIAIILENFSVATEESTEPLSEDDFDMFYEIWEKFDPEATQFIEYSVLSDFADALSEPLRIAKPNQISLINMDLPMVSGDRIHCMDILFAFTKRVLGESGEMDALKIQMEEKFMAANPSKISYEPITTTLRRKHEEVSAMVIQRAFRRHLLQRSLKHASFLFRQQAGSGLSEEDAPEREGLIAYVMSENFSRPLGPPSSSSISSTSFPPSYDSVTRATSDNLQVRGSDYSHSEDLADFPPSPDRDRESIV

M2 (CHRM2) = biological target: T8, M2 (CHRM2) (Homo sapiens, UniProt P08172); experiment: Cross screening: M2 (CHRM2) Human Ag; assay type: biochemical
T8 construct: purchased GSK enhanced cross-screening panel (in-house)

KCNQ1 = KCNQ1 (Homo sapiens, UniProt P51787); experiment: Cross screening: KCNQ1 blocker
KCNQ1, sequence (P51787 whole entry): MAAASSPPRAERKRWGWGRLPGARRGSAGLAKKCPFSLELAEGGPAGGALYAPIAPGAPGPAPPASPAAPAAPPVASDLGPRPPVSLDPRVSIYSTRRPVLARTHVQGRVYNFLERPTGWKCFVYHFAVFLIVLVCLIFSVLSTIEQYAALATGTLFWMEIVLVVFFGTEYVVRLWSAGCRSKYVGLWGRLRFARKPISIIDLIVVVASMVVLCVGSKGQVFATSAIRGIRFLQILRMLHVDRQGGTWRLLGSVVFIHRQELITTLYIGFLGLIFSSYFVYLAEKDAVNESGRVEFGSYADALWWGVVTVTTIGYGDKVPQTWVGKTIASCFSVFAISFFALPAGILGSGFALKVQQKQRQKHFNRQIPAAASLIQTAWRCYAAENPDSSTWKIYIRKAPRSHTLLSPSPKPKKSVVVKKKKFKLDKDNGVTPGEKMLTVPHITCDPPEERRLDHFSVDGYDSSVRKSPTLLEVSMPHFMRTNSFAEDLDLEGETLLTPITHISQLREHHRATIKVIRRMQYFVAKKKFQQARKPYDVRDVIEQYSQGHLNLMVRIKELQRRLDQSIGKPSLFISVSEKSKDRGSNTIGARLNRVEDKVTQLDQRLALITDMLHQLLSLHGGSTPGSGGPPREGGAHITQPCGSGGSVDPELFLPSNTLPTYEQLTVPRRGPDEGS

MCP-1 = experiment: LPS-stimulated human whole blood (hWB) MCP-1 release assay; assay type: cell-based
From the text: The utility of a chemical probe in target validation is directly related to its quality, with important publications detailing requirements to aid researchers.[36]−[38] […] It was accepted that selectivity would be judged initially through a mutant BRD4 TR-FRET assay and would likely shift depending on the protein construct and assay format. […] Previous studies have shown that BET BD1 inhibition is sufficient to inhibit in vitro production of MCP-1 in LPS-stimulated hWB and, as such, served as a relevant measure of cellular target engagement and, concomitantly, proof of cellular permeability.[12],[39] Selectivity over other human bromodomains outside of the BET family, known collectively as non-BET bromodomains, was also required,[40] with a ≥ 100-fold selectivity window targeted. To ensure the molecules remained within developable chemical space, a target property forecast index (PFI) as defined by chromLogDpH7.4 + number of aromatic rings ≤6 was set.[41]
To understand cellular target engagement, 21 was tested in an LPS-stimulated hWB assay measuring inhibition of the inflammatory mediator MCP-1 secretion.
(§3) All TR-FRET and hWB cytokine assays have been described previously.[54]

D1 = biological target: T9, D1 (Homo sapiens, UniProt P21728); experiment: Cross screening: D1 antagonist; assay type: biochemical
T9 construct: purchased GSK enhanced cross-screening panel (in-house)
T9 sequence (P21728 whole entry): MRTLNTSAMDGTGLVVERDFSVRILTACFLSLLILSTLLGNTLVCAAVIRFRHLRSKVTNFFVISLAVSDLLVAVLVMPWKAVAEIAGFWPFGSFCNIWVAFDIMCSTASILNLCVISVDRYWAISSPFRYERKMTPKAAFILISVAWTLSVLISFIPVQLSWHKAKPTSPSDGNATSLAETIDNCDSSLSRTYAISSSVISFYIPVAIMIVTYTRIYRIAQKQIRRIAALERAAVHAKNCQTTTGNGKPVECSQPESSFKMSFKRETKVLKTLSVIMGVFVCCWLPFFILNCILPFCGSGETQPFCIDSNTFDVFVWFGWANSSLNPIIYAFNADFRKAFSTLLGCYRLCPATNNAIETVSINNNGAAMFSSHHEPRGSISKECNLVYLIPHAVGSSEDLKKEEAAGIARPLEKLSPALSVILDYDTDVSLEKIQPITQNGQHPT

BRD4 BD2 = BRD4 BD2 TR-FRET assay; assay type: binding, human
Method: As a strategic decision, every compound synthesized across all of GSK’s bromodomain research projects was tested in both a BRD4 BD1 and a BRD4 BD2 TR-FRET assay as part of tier 1 data generation. […] LipE is a straightforward, yet powerful metric for medicinal chemistry teams to normalize potency relative to lipophilicity, a critical factor both for parameters of the human dose equation and also for promiscuity.[43],[44] To aid interpretation, diagonal lines representing different LipE values are shown, with the most desirable space found toward the top left-hand area of the plot representing molecules with the comparatively highest potency per unit of lipophilicity.
as §3

BRD9 = biological target: T10, BRD9 (Homo sapiens, UniProt Q9H8M2); experiment: BROMOscan BRD9; assay type: binding
T10 construct: ≥2000-fold selectivity over all 20 non-BET bromodomains tested; purchased DiscoverX
T10 sequence (Q9H8M2 136-240 limits assumed): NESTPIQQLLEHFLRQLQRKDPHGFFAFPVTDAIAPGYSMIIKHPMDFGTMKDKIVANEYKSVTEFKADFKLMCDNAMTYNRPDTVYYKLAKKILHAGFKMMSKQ
Method: as §1, §2

SMARCA4 = biological target: T11, SMARCA4 (Homo sapiens, UniProt P51532); experiment: BROMOscan SMARCA4; assay type: binding
T11 construct: ≥2000-fold selectivity over all 20 non-BET bromodomains tested; purchased DiscoverX
T11 sequence (P51532 1453-1564 limits assumed): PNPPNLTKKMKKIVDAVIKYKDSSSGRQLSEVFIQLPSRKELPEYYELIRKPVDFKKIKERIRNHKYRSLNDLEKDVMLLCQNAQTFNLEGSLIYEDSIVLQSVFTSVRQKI
Method: as §1, §2

AR = biological target: T12, AR (Homo sapiens, UniProt P10275); experiment: Cross screening: AR Agonist; assay type: biochemical
T12 construct: purchased GSK enhanced cross-screening panel (in-house)

NMDA 1A/2B = biological target: T13, NMDA 1A/2B (Homo sapiens, UniProt Q05586+Q13224); experiment: Cross screening: NMDA 1A/2B antagonist; assay type: biochemical
T13 construct: purchased GSK enhanced cross-screening panel (in-house)

BRD4 BD1 = biological target: T14, BRD4 BD1 (Homo sapiens, UniProt O60885); experiment: BROMOscan BRD4 BD1; assay type: binding
T14 construct: BRD4 BD1; purchased DiscoverX
Method: as §1, §2

BRD2 BD2 = biological target: T15, BRD2 BD2 (Homo sapiens, UniProt P25440); experiment: BROMOscan BRD2 BD2; assay type: binding
T15 construct: BRD2 BD2; purchased DiscoverX
T15 sequence (P25440 344-453 limits assumed): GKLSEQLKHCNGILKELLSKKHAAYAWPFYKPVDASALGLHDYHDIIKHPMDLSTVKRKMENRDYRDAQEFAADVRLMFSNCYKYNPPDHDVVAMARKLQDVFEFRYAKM
Method: as §1, §2

[1] = tested on: pharmacologically relevant off-targets; experiment: GSK enhanced cross-screening panel (whole panel); settings: no activity at the concentrations tested
BRD1 = biological target: T16, BRD1 (Homo sapiens, UniProt O95696); experiment: BROMOscan BRD1; assay type: binding
T16 construct: ≥2000-fold selectivity over all 20 non-BET bromodomains tested; purchased DiscoverX
Method: as §1, §2

BRD7 = biological target: T17, BRD7 (Homo sapiens, UniProt Q9NPI1); experiment: BROMOscan BRD7; assay type: binding
T17 construct: ≥2000-fold selectivity over all 20 non-BET bromodomains tested; purchased DiscoverX
T17 sequence (Q9NPI1 131-235 limits assumed): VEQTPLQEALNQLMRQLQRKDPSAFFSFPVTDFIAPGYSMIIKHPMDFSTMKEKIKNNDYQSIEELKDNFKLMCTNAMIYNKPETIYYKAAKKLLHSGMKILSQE
Method: as §1, §2

hCav1_2 = biological target: T18, hCav1_2 (Homo sapiens, UniProt Q13936); experiment: Cross screening: hCav1_2 Blocker; assay type: biochemical
T18 construct: purchased GSK enhanced cross-screening panel (in-house)

5-HT2C = biological target: T19, 5-HT2C (Homo sapiens, UniProt P28335); experiment: Cross screening: 5-HT2C antagonist; assay type: biochemical
T19 construct: purchased GSK enhanced cross-screening panel (in-house)

NK1 = biological target: T20, NK1 (Homo sapiens, UniProt P25103); experiment: Cross screening: NK1 antagonist; assay type: biochemical
T20 construct: purchased GSK enhanced cross-screening panel (in-house)

Cyclooxygenase 2 (COX-2) = biological target: T21, Cyclooxygenase 2 (COX-2) (Homo sapiens, UniProt P35354); experiment: Cross screening: Cyclooxygenase 2 (COX-2) antagonist; assay type: biochemical
T21 construct: purchased GSK enhanced cross-screening panel (in-house)

CB1 = biological target: T22, CB1 (Homo sapiens, UniProt P21554); experiment: Cross screening: CB1 Agonist; assay type: biochemical
T22 construct: purchased GSK enhanced cross-screening panel (in-house)

SMARCA2 = biological target: T23, SMARCA2 (Homo sapiens, UniProt P51531); experiment: BROMOscan SMARCA2; assay type: binding
T23 construct: ≥2000-fold selectivity over all 20 non-BET bromodomains tested; purchased DiscoverX
Method: as §1, §2

GCN5 = biological target: T24, GCN5 (Homo sapiens, UniProt Q92830); experiment: BROMOscan GCN5; assay type: binding
T24 construct: ≥2000-fold selectivity over all 20 non-BET bromodomains tested; purchased DiscoverX
T24 sequence (Q92830 728-832 limits assumed): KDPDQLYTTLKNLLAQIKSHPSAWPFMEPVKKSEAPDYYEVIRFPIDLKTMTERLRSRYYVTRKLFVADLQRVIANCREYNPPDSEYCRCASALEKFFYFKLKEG
Method: as §1, §2

Cc1cc(-c2nc3ccccc3n2C[C@@H]2CCCN(C(=O)C3CCN(C(C)C)CC3)C2)cn(C)c1=O [Compound 31, (S)-5-(1-((1-(1-Isopropylpiperidine-4-carbonyl)piperidin-3-yl)methyl)-1H-benzo [d]imidazole-2-yl)-1,3-dimethylpyridin-2(1H)-one]
pXC50 SERT blocker (SERT): < 4.0 | Kd (PCAF): > 31.6 µM | Kd (BAZ2B): > 31.6 µM | pXC50 LCK inhibitor (LCK): < 4.5 | pXC50 Aurora B inhibitor (Aurora B): < 4.5 | Kd (BAZ2A): > 31.6 µM | pXC50 Histamine 1 antagonist (Histamine 1): < 4.6 | pXC50 CYP3A4 inhibition (CYP3A4): 4.1 | pXC50 Nav1.5 blocker (Nav1.5): < 4.3 | pXC50 M2 (CHRM2) Human Ag (M2 (CHRM2)): < 4.3 | pXC50 KCNQ1 blocker (KCNQ1): < 4.6 | IC50 (MCP-1; Homo sapiens, read-out: hWB MCP-1 IC50): 0.126 µM | IC50 (MCP-1; LPS-stimulated human whole blood, read-out: hWB MCP-1 pIC50 (converted)): 0.126 µM | pXC50 D1 antagonist (D1): < 4.0 | BRD4 BD2 FRET pIC50 (BRD4 BD2): 4.8 | Kd (BRD9): 25.1 µM | Kd (SMARCA4): > 31.6 µM | pXC50 AR Agonist (AR): < 4.0 | pXC50 NMDA 1A/2B antagonist (NMDA 1A/2B): < 4.0 | BROMOscan pKd BRD4 BD1 (BRD4 BD1): 8.1 | fold selectivity BRD4 BD1 over BD2 (BRD4 BD1; BROMOscan): 316 fold | BROMOscan pKd BRD2 BD2 (BRD2 BD2): 5.5 | XC50 in enhanced cross-screening panel [1]: > 25 µM | pXC50 in enhanced cross-screening panel [1]: < 4.6 | Kd (BRD1): > 31.6 µM | Kd (BRD7): > 31.6 µM | pXC50 hCav1_2 Blocker (hCav1_2): < 4.0 | pXC50 5-HT2C antagonist (5-HT2C): < 4.0 | pXC50 NK1 antagonist (NK1): < 4.6 | pXC50 Cyclooxygenase 2 (COX-2) antagonist (Cyclooxygenase 2 (COX-2)): < 4.0 | pXC50 CB1 Agonist (CB1): < 4.0 | Kd (SMARCA2): > 31.6 µM | Kd (GCN5): > 31.6 µM
